Five compounds from ChEMBL document CHEMBL1201862, “PubChem BioAssay data set” (2004) can be followed below.

Holding throughout (assay): DTP human tumour cell line panel, 48 h
The subject of assay [1] is SW-620.
Assay [2] deals with HOP-92.
Assay [3] has as its system NCI-H522.
In assay [4] the test system is HT-29.
Assay [5] deals with SNB-75.
The subject of assay [6] is LOX IMVI.
The test system of assay [7] is A549.
Assay [8] has as its system SNB-19.
Assay [9] deals with UACC-257.
The test system of assay [10] is MOLT-4.
Assay [11] concerns A498.
Assay [12] has as its system PC-3.
Assay [13] concerns Malme-3M.
In assay [14] the test system is SR.
Assay [15] deals with T47D.
In assay [16] the test system is SF-268.
Assay [17] relates to NCI-H226.
Assay [18] deals with NCI-H460.
Assay [19] deals with DU-145.
Assay [20] has as its system SN12C.

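In this assay, cells in 96-well plates receive the compound at five concentrations for 48 hours. Endpoints are linearly interpolated between the surrounding concentrations. GI50 is the concentration that inhibits growth by half.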 Calls of active or inactive are those of the source. No stated cut-off is given here; in the data, active = GI50 up to about 1.1 µM and inactive = higher.

For orientation: GI50 means the concentration that inhibits growth by half. Regarding `CN(Cc1cc(Cl)cc(Cl)c1)CC(C(=O)c1ccccc1)c1ccccc1` (stereo not given), the GI50 in assay [1] is 0.326 µM (active); in assay [2] it was 7.33 µM (inactive); in assay [3] it was 1.54 µM (inactive); in assay [4], 1.12 µM (active); in [5], 7.48 µM (inactive); in assay [6], 1.65 µM (inactive). Further, the GI50 in assay [7] is 23.3 µM (inactive); in [8], 14.4 µM (inactive); in assay [9], 2.56 µM (inactive); in assay [10], 0.684 µM (active); in assay [11], 14.5 µM (inactive); in assay [12], 4.91 µM (inactive). The GI50 was 8 µM (inactive) in [13]; 0.473 µM (active) in assay [14]; 2.02 µM (inactive) in assay [15]; 13.7 µM (inactive) in [16]; 5.5 µM (inactive) in assay [17]; 27.5 µM (inactive) in assay [18]. For the same compound, the GI50 in assay [19] was 4.69 µM (inactive); in [20], 4.67 µM (inactive).
`C=C1C(=O)OC2CC3(C)OC3CC/C(C)=C/C(OC(C)=O)C12` (stereo not given): the GI50 in assay [1] was 1.72 µM (inactive); in [2], 1.82 µM (inactive); in [3], 1.04 µM (active); in [4], 4.15 µM (inactive); in assay [5], 8.77 µM (inactive); in [6] it was 5.22 µM (inactive). For the same compound, the GI50 in assay [7] is 17.3 µM (inactive); in assay [8], 18.3 µM (inactive); in assay [9] it was 9.64 µM (inactive); in assay [10], 3.37 µM (inactive); in assay [11] it was 15.8 µM (inactive); in assay [12], 13.2 µM (inactive). Besides, the GI50 was 2.55 µM (inactive) in [13]; 3.07 µM (inactive) in assay [14]; 3.76 µM (inactive) in [15]; 17 µM (inactive) in assay [16]; 7.45 µM (inactive) in assay [17]; 15.4 µM (inactive) in assay [18]. Besides, the GI50 is 15.1 µM (inactive) in assay [19] and 11.5 µM (inactive) in assay [20].
With `Cc1cccc(Cl)c1NC(=O)/C=C/c1ccccc1`, the GI50 in assay [1] was > 100 µM (inactive); in assay [2] it was 29.6 µM (inactive); in assay [3] it was 49.3 µM (inactive); in assay [4], 59.3 µM (inactive); in assay [5], 24.2 µM (inactive); in assay [6], > 100 µM (inactive). Further, the GI50 in assay [7] was 94 µM (inactive); in assay [8] it was > 100 µM (inactive); in [9], > 100 µM (inactive); in assay [10], > 100 µM (inactive); in assay [11], > 100 µM (inactive); in assay [12] it was > 100 µM (inactive). For the same compound, the GI50 was > 100 µM (inactive) in assay [13]; > 100 µM (inactive) in assay [14]; 36.7 µM (inactive) in assay [15]; 67 µM (inactive) in [16]; > 100 µM (inactive) in [17]; 86.3 µM (inactive) in assay [18]. For the same compound, the GI50 is 67.6 µM (inactive) in [19] and 80.5 µM (inactive) in [20].
As for `Cc1ncc(-c2nnnn2-c2ccccc2)c(C(=O)O)n1`, the GI50 in [1], in assay [2], in assay [3], in assay [4], in assay [5] and in assay [6] was > 100 µM (inactive) each time. The GI50 in assay [7], in assay [8], in assay [9], in [10], in assay [11] and in assay [12] was > 100 µM (inactive) in each case. Moreover, the GI50 in assay [13], in [14], in assay [15], in assay [16], in assay [17] and in assay [18] was > 100 µM (inactive) each time. The GI50 in [19] and in assay [20] was > 100 µM (inactive) in each case.
On to `N#CC(C#N)[C@@H]1CCC=C(Sc2ccccc2)[C@H]1Sc1ccccc1`, for which the GI50 in assay [1] is 2.42 µM (inactive); in assay [2], 3.39 µM (inactive); in assay [3], 2.19 µM (inactive); in [4] it was 3.87 µM (inactive); in [5] it was 5.08 µM (inactive); in assay [6] it was 2.46 µM (inactive). The GI50 in assay [7] is 3.28 µM (inactive); in assay [8] it was 12.8 µM (inactive); in [9] it was 2.26 µM (inactive); in assay [10], 2.38 µM (inactive); in assay [11], 13.5 µM (inactive); in assay [12], 3.86 µM (inactive). The GI50 is 2.42 µM (inactive) in [13]; 1.97 µM (inactive) in assay [14]; 1.45 µM (inactive) in assay [15]; 5.62 µM (inactive) in assay [16]; 1.72 µM (inactive) in [17]; 3.56 µM (inactive) in assay [18]. Besides, the GI50 was 2.72 µM (inactive) in assay [19] and 2.8 µM (inactive) in assay [20].
